Source: patent US11584775B2, “C4-modified oleanolic acid derivatives for inhibition of IL-17 and other uses” (REATA PHARMACEUTICALS, INC., priority 2015, dated 2023)

Key:
[1] = test system: IFNγ-induced Nitric Oxide production; experiment: Nitric oxide production assay in RAW 264.7 mouse macrophages; type: cell-based; settings: RAW264.7, suppression of IFNγ-induced NO production normalized to cell viability (WST-1), RAW 264.7, 24 hours IFNγ
Experimental: A. Nitric Oxide Production Assay and Cell Viability
RAW 264.7 mouse macrophages were plated in 96-well plates at a density of 30,000 cells per well in triplicate in RPMI 1640+0.5% FBS and incubated at 37° C. with 5% CO2 in a humidified atmosphere. The next day, cells were pre-treated with DMSO (vehicle) or test compound (concentration ranges of 0.4-200 nM or 2-1000 nM) for 2 hours and then treated with recombinant mouse IFNγ (R&D Systems) for 24 hours. Nitric oxide concentration in media was determined using the Griess reagent system (Promega). Cell viability was determined using WST-1 reagent (Roche). Values from test compound samples were normalized to those from DMSO/IFNγ-treated samples. IC50 values were determined based on the suppression of IFNγ-induced Nitric Oxide production normalized to cell viability.

NRF2 = experiment: AREc32 luciferase reporter assay; type: cell-based, human; settings: EC2×: concentration required to increase GST ARE Luciferase reporter activity by 2-fold; AREc32 cells, 19 hours
Text: B. AREc32 Luciferase Reporter Assay
The AREc32 luciferase reporter assay allows for quantitative assessment of the endogenous activity of the Nrf2 transcription factor in cultured mammalian cells. AREc32 cells are derived from MCF-7 human breast carcinoma cells that were stably transfected with a reporter construct that contains the firefly luciferase gene located downstream of eight copies of the rat GSTA2 antioxidant response element (ARE) sequence (Wang et al., 2006; CXR Biosciences). Active NRF2 binds to the ARE sequences and increases expression of the firefly luciferase gene. To assess the NRF2-activating potential of the test compounds, AREc32 cells were plated in black 96-well plates at a density of 20,000 cells per well in triplicate in DMEM+10% FBS+0.8 mg/mL Geneticin and incubated at 37° C. with 5% CO2 in a humidified atmosphere. The next day, cells were treated with DMSO (vehicle) or test compound (concentration ranges of 0.4-200 nM or 2-1000 nM) for 19 hours. Luciferase activity was determined using the ONE-Glo Luciferase assay (Promega). The luminescence signal was measured on a BMG Pherastar microplate reader. The mean luminescence value from test compound-treated wells was normalized to that from DMSO-treated wells and was represented as fold-induction. Data were analyzed using GraphPad Prism version 6.00 for Windows, GraphPad Software, La Jolla Calif. USA. A non-linear regression curve with log (agonist) vs. response using a variable slope was used to fit the data. Where applicable, a maximum threshold value of 50-fold over DMSO was set. EC2× values were interpolated from the curve. EC2× corresponds to the concentration of test compound required to increase GST ARE Luciferase reporter activity by 2-fold.

hIL17 = experiment: IL-17 release from differentiated primary human T-cells (IL-17A HTRF assay); type: cell-based; settings: inhibition of IL-17A levels; primary human CD4+ T cells differentiated into Th17 cells, 46-hour incubation
Experimental: D. IL-17 Release from Differentiated Primary Human T-Cells and Cell Viability
Primary human cryopreserved CD4+ T Cells (Lonza, donor #0000402103) were plated in Lymphocyte Growth Medium-3 (LGM-3, Lonza) according to the manufacturer's recommendations, and allowed to recover for approximately 3 hours at 37° C. with 5% CO2 in a humidified atmosphere. After the recovery step, cells were collected by centrifugation and re-plated in 96-well plates at a density of ˜140,000 cells per well in LGM-3 medium that contained DMSO (vehicle) or test compound (2-500 nM or 4-1000 nM concentration range). Triplicate wells were plated for each test condition. DMSO (final concentration ≤0.1%) was used as the vehicle. Immediately after plating, CD4+ T cells were activated by adding Dynabeads Human T-Activator CD3/CD28 (Life Technologies; bead-to-cell ratio of 1:2.5) and differentiated into Th17 cells by adding a mixture of the following cytokines: transforming growth factor-β (TGF-β, 5 ng/mL), IL-6 (20 ng/mL), IL-23 (20 ng/mL), and […] (10 ng/mL). Undifferentiated control cells received only cytokine IL-2 (50 ng/mL). All human recombinant cytokines were purchased from R&D Systems. Following a 46-hour incubation at 37° C. with 5% CO2 in a humidified atmosphere, the plates were centrifuged for 3 minutes at 250×g, and half of the supernatant was transferred to a new plate to be used in the IL-17A assay (see below). Cell viability was assessed in the original plate using the CyQuant Direct Assay (Life Technologies). CyQuant values from test compound samples were normalized to those from DMSO-treated samples. The concentration of IL-17A in the supernatant was measured using the Homogeneous Time-Resolved Fluorescence (HTRF) assay (Cisbio Bioassays) according to the manufacturer's protocol. The assay was performed at room temperature in low volume, solid white 384-well plates (Greiner Bio-One). Samples and standards (serially-diluted human recombinant IL-17A (0 to 5,000 pg/mL concentration range; Cisbio Bioassays) were incubated with the anti-human IL-17A antibody conjugate for 16 hours and fluorescence was measured using a Pherastar FS microplate reader (BMG Labtech) in the HTRF mode (excitation at 337 nm and emission at 665 nm and 620 nm). IL-17A concentrations were assessed in duplicate aliquots of supernatant from each well resulting in a total of six readings per test condition. The 665 nm/620 nm signal ratio was calculated and the concentration of IL-17A in each sample was determined by interpolation from the standard curve. IL-17A values from test compound samples were normalized to those from DMSO-treated samples. Data were analyzed using GraphPad Prism version 6.00 for Windows (GraphPad Software, La Jolla Calif. USA). A non-linear regression analysis with log (inhibitor) vs. normalized response using a variable slope was applied to fit the data and determine the IC50 values for inhibition of IL-17A levels and cell viability.

human RORγ = target: T1, human RORγ (Homo sapiens, UniProt P51449); experiment: RORγ assay (GAL4-RORγ hybrid luciferase reporter, inverse-agonist activity); type: cell-based; settings: GAL4-RORγ hybrid reporter cells, 23 hours
T1 sequence (P51449 269-508 limits assumed): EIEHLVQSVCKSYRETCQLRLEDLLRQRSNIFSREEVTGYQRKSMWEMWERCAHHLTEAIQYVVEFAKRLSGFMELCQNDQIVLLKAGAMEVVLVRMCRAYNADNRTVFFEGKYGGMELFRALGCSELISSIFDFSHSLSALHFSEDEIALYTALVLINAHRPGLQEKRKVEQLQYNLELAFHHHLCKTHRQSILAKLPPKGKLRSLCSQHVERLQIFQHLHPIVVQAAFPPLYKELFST
Text: C. RORγ Assay and Cell Viability
The RORγ assay system was purchased from Indigo Biosciences. This nuclear receptor assay utilizes a human cell line that has been engineered to express a hybrid form of the Human RAR-related Orphan Receptor Gamma (RORγ) at high levels. The N-terminal DNA binding domain (DBD) of the native RORγ receptor was substituted with the yeast GAL4-DBD to generate the GAL4-RORγ hybrid nuclear receptor. The reporter cell line is transfected with a plasmid that encodes the beetle luciferase gene under the control of the GAL4 upstream activating sequence (UAS). GAL4 binds to the UAS and increases transcription of downstream target genes. […] To assess the RORγ inverse-agonist activity of the test compounds, reporter cells were plated in white 96-well plates in triplicate and were treated with DMSO (vehicle) or test compound (concentration ranges of 0.4-200 nM or 2-1000 nM) at 37° C. with 5% CO2 in a humidified atmosphere for 23 hours. After this incubation, luciferin was added to the wells and luciferase activity was determined by measuring the luminescence signal using a BMG Pherastar microplate reader. Viability was determined using the Live Cell Multiplex Assay (Indigo Biosciences). Values from test compound samples were normalized to those from DMSO-treated samples. Data were analyzed using GraphPad Prism version 6.00 for Windows (GraphPad Software, La Jolla Calif. USA). A non-linear regression analysis with log (inhibitor) vs. normalized response using a variable slope was applied to fit the data and determine the IC50 values for inhibition of RORγ and cell viability.

Row | SMILES | IC50 [1] [µM] | EC2x: concentration giving 2-fold induction of ARE luciferase reporter (NRF2) [nM] | IC50 (hIL17) [µM] | IC50 (human RORγ) [µM]
1 | COC(=O)[C@]12CCC(C)(C)C[C@H]1[C@H]1C(=O)C=C3[C@@]4(C)C=C(C#N)C(=O)[C@](C)(CO)[C@@H]4CC[C@@]3(C)[C@]1(C)CC2 [Comparison Compound #301, reference compound] | 0.0018 | 8 | 0.017 | 0.144
2 | COCOC[C@@]1(C)C(=O)C(C#N)=C[C@]2(C)C3=CC(=O)[C@@H]4[C@@H]5CC(C)(C)CC[C@]5(C(=O)OC)CC[C@@]4(C)[C@]3(C)CC[C@@H]12 [Comparison Compound #302, reference compound] | 0.0131 | 78 | 0.024 | 0.091
3 | COC(=O)[C@]12CCC(C)(C)C[C@H]1[C@H]1C(=O)C=C3[C@@]4(C)C=C(C#N)C(=O)C[C@@H]4CC[C@@]3(C)[C@]1(C)CC2 [Compound T1] | 0.0081 | 50 | 0.04 | 0.144
4 | COC(=O)[C@]12CCC(C)(C)C[C@H]1[C@H]1C(=O)C=C3[C@@]4(C)C=C(C#N)C(=O)[C@@](C)(C(=O)OC)[C@@H]4CC[C@@]3(C)[C@]1(C)CC2 [Compound T2, dimethyl (4S,4aR,6aS,6bR,8aS,12aS,12bR,14bS)-2-cyano-4,6a,6b,11,11,14b-hexamethyl-3,13-dioxo-4,4a,5,6,6a,6b,7,8,9,10,11,12,12a,12b,13,14b-hexadecahydropicene-4,8a(3H)-dicarboxylate] | 0.092 | 204 | 0.019 | 0.216
5 | COC(=O)[C@]12CCC(C)(C)C[C@H]1[C@H]1C(=O)C=C3[C@@]4(C)C=C(C#N)C(=O)[C@](C)(C(=O)OC)[C@@H]4CC[C@@]3(C)[C@]1(C)CC2 [Compound T3, dimethyl (4R,4aR,6aS,6bR,8aS,12aS,12bR,14bS)-2-cyano-4,6a,6b, 11,11,14b-hexamethyl-3,13-dioxo-4,4a,5,6,6a,6b,7,8,9,10,11,12,12a,12b,13,14b-hexadecahydropicene-4,8a(3H)-dicarboxylate] | 0.0223 | 48 | 0.018 | 0.169
6 | COC(=O)[C@]12CCC(C)(C)C[C@H]1[C@H]1C(=O)C=C3[C@@]4(C)C=C(C#N)C(=O)[C@@](C)(C(F)F)[C@@H]4CC[C@@]3(C)[C@]1(C)CC2 [Compound T4, methyl (4aS,6aR,6bS,8aR,9S,12aS,14aR,14bS)-11-cyano-9-(difluoromethyl)-2,2,6a,6b,9,12a-hexamethyl-10,14-dioxo-1,3,4,5,6,6a,6b,7,8,8a,9,10,12a,14,14a,14b-hexadecahydropicene-4a(2H)-carboxylate] | 0.0196 | 36 | 0.029 | 0.234
7 | COC(=O)[C@]12CCC(C)(C)C[C@H]1[C@H]1C(=O)C=C3[C@@]4(C)C=C(C#N)C(=O)[C@@](C)(O)[C@@H]4CC[C@@]3(C)[C@]1(C)CC2 [Compound T5] | 0.0226 | 56 | 0.018 | 0.115
8 | COC(=O)[C@]12CCC(C)(C)C[C@H]1[C@H]1C(=O)C=C3[C@@]4(C)C=C(C#N)C(=O)[C@](C)(O)[C@@H]4CC[C@@]3(C)[C@]1(C)CC2 [Compound T6, methyl (4aS,6aR,6bS,8aR,9R,12aS,14aR,14bS)-11-cyano-9-hydroxy-2,2,6a,6b,9,12a-hexamethyl-10,14-dioxo-1,3,4,5,6,6a,6b,7,8,8a,9,10,12a,14,14a,14b-hexadecahydropicene-4a(2H)-carboxylate] | 0.0092 | 30 | 0.032 | 0.115
9 | COCOC[C@]1(C)C(=O)C(C#N)=C[C@]2(C)C3=CC(=O)[C@@H]4[C@@H]5CC(C)(C)CC[C@]5(C(=O)OC)CC[C@@]4(C)[C@]3(C)CC[C@H]21 [Compound T7, methyl (4aS,6aR,6bS,8aR,9R,12aS,14aR,14bS)-11-cyano-9-((methoxymethoxy)methyl)-2,2,6a,6b,9,12a-hexamethyl-10,14-dioxo-1,3,4,5,6,6a,6b,7,8,8a,9,10,12a,14,14a,14b-hexadecahydropicene-4a(2H)-carboxylate] | 0.0951 | 270 | 0.027 | 0.251
